Source: ChEMBL document CHEMBL2034905, “Synthesis of benzimidazolyl-1,3,4-oxadiazol-2ylthio-N-phenyl (benzothiazolyl) acetamides as antibacterial, antifungal and antituberculosis agents” (Eur J Med Chem, 2012)
≈ marks a conversion by molar mass, not a printed value.

How the values were obtained:
Staphylococcus aureus [1] = assay: Antibacterial activity against Staphylococcus aureus MTCC 96 at 100 ug/disc by paper disc diffusion technique; assay type: functional; details: read-out: IZ
Salmonella typhi [2] = assay: Antibacterial activity against Salmonella typhi MTCC 733 at 100 ug/disc by paper disc diffusion technique; assay type: functional, Salmonella enterica subsp. enterica serovar Typhi; details: Salmonella enterica, read-out: IZ
Bacillus cereus [3] = assay: Antibacterial activity against Bacillus cereus MTCC 430 at 100 ug/disc by paper disc diffusion technique; assay type: functional; details: read-out: IZ
Pseudomonas aeruginosa [4] = assay: Antibacterial activity against Pseudomonas aeruginosa MTCC 741 at 100 ug/disc by paper disc diffusion technique; assay type: functional; details: read-out: IZ
Proteus vulgaris [5] = assay: Antibacterial activity against Proteus vulgaris MTCC 1771 by agar streak dilution method; assay type: functional
Klebsiella pneumoniae [6] = assay: Antibacterial activity against Klebsiella pneumoniae MTCC 109 by agar streak dilution method; assay type: functional
Staphylococcus aureus [7] = assay: Antibacterial activity against Staphylococcus aureus MTCC 96 by agar streak dilution method; assay type: functional
Proteus vulgaris [8] = assay: Antibacterial activity against Proteus vulgaris MTCC 1771 at 100 ug/disc by paper disc diffusion technique; assay type: functional; details: read-out: IZ
[9] = test system: Mycobacterium tuberculosis; assay: Antituberculosis activity against Mycobacterium tuberculosis H37Rv at 6.25 ug/ml by Lowenstein-Jensen method; assay type: functional
[10] = test system: Mycobacterium tuberculosis; assay: Antituberculosis activity against Mycobacterium tuberculosis H37Rv by Lowenstein-Jensen method; assay type: functional
Aspergillus clavatus [11] = assay: Antifungal activity against Aspergillus clavatus MTCC 1323 at 100 ug/disc by paper disc diffusion technique; assay type: functional; details: read-out: IZ
Salmonella typhi [12] = assay: Antibacterial activity against Salmonella typhi MTCC 733 by agar streak dilution method; assay type: functional, Salmonella enterica subsp. enterica serovar Typhi; details: Salmonella enterica
[13] = test system: Mycobacterium tuberculosis; assay: Antituberculosis activity against Mycobacterium tuberculosis H37Rv by BACTEC MGIT method; assay type: functional
Aspergillus niger [14] = assay: Antifungal activity against Aspergillus niger MTCC 282 by agar streak dilution method; assay type: functional
Candida albicans [15] = assay: Antifungal activity against Candida albicans MTCC 183 at 100 ug/disc by paper disc diffusion technique; assay type: functional; details: read-out: IZ
Klebsiella pneumoniae [16] = assay: Antibacterial activity against Klebsiella pneumoniae MTCC 109 at 100 ug/disc by paper disc diffusion technique; assay type: functional; details: read-out: IZ
[17] = Lipophilicity, log P of the compound; assay type: physicochemical; details: octanol/water
Shigella flexneri [18] = assay: Antibacterial activity against Shigella flexneri MTCC 1457 at 100 ug/disc by paper disc diffusion technique; assay type: functional; details: read-out: IZ
Aspergillus fumigatus [19] = assay: Antifungal activity against Aspergillus fumigatus MTCC 343 by agar streak dilution method; assay type: functional
Aspergillus niger [20] = assay: Antifungal activity against Aspergillus niger MTCC 282 at 100 ug/disc by paper disc diffusion technique; assay type: functional; details: read-out: IZ
Shigella flexneri [21] = assay: Antibacterial activity against Shigella flexneri MTCC 1457 by agar streak dilution method; assay type: functional
Aspergillus clavatus [22] = assay: Antifungal activity against Aspergillus clavatus MTCC 1323 by agar streak dilution method; assay type: functional
Escherichia coli [23] = assay: Antibacterial activity against Escherichia coli MTCC 739 by agar streak dilution method; assay type: functional
[24] = test system: Mycobacterium tuberculosis; assay: Antituberculosis activity against Mycobacterium tuberculosis H37Rv at 6.25 ug/ml by BACTEC MGIT method; assay type: functional
Bacillus cereus [25] = assay: Antibacterial activity against Bacillus cereus MTCC 430 by agar streak dilution method; assay type: functional
Candida albicans [26] = assay: Antifungal activity against Candida albicans MTCC 183 by agar streak dilution method; assay type: functional
Escherichia coli [27] = assay: Antibacterial activity against Escherichia coli MTCC 739 at 100 ug/disc by paper disc diffusion technique; assay type: functional; details: read-out: IZ
Aspergillus fumigatus [28] = assay: Antifungal activity against Aspergillus fumigatus MTCC 343 at 100 ug/disc by paper disc diffusion technique; assay type: functional; details: read-out: IZ
Pseudomonas aeruginosa [29] = assay: Antibacterial activity against Pseudomonas aeruginosa MTCC 741 by agar streak dilution method; assay type: functional

Row | SMILES | zone of inhibition at 100 µg/disc (Staphylococcus aureus [1]) | zone of inhibition at 100 µg/disc (Salmonella typhi [2]) | zone of inhibition at 100 µg/disc (Bacillus cereus [3]) | zone of inhibition at 100 µg/disc (Pseudomonas aeruginosa [4]) | MIC (Proteus vulgaris [5]) | MIC (Klebsiella pneumoniae [6]) | MIC (Staphylococcus aureus [7]) | zone of inhibition at 100 µg/disc (Proteus vulgaris [8]) | inhibition at 6.25 µg/mL [9] | MIC [10] | zone of inhibition at 100 µg/disc (Aspergillus clavatus [11]) | MIC (Salmonella typhi [12]) | MIC [13] | MIC (Aspergillus niger [14]) | zone of inhibition at 100 µg/disc (Candida albicans [15]) | zone of inhibition at 100 µg/disc (Klebsiella pneumoniae [16]) | logP [17] | zone of inhibition at 100 µg/disc (Shigella flexneri [18]) | MIC (Aspergillus fumigatus [19]) | zone of inhibition at 100 µg/disc (Aspergillus niger [20]) | also measured
1 | COc1ccc(NC(=O)CSc2nnc(Cn3cnc4ccccc43)o2)cc1 | 13 mm | 20 mm | 18 mm | 21 mm | 25 µg/mL (≈ 63.2 µM) | 100 µg/mL (≈ 253 µM) | 100 µg/mL (≈ 253 µM) | 21 mm | 99% | 6.25 µg/mL (≈ 15.8 µM) | < 10 mm | 50 µg/mL (≈ 126 µM) | 6.25 µg/mL (≈ 15.8 µM) | 100 µg/mL (≈ 253 µM) | 22 mm | 11 mm | 2.37 | 19 mm | 100 µg/mL (≈ 253 µM) | 16 mm | MIC (Shigella flexneri [21]): 50 µg/mL (≈ 126 µM); MIC (Aspergillus clavatus [22]): 100 µg/mL (≈ 253 µM); MIC (Escherichia coli [23]): 50 µg/mL (≈ 126 µM); inhibition at 6.25 µg/mL [24]: 99%; MIC (Bacillus cereus [25]): 50 µg/mL (≈ 126 µM); MIC (Candida albicans [26]): 50 µg/mL (≈ 126 µM); zone of inhibition at 100 µg/disc (Escherichia coli [27]): 20 mm; zone of inhibition at 100 µg/disc (Aspergillus fumigatus [28]): 10 mm; MIC (Pseudomonas aeruginosa [29]): 50 µg/mL (≈ 126 µM)
2 | Cc1ccc2nc(NC(=O)CSc3nnc(Cn4cnc5ccccc54)o3)sc2c1 | 15 mm | 11 mm | 19 mm | 15 mm | 50 µg/mL (≈ 115 µM) | 100 µg/mL (≈ 229 µM) | 50 µg/mL (≈ 115 µM) | 20 mm | 97% | 200 µg/mL (≈ 458 µM) | 12 mm | 100 µg/mL (≈ 229 µM) | > 6.25 µg/mL | 100 µg/mL (≈ 229 µM) | 15 mm | 18 mm | 4.18 | 14 mm | 100 µg/mL (≈ 229 µM) | 12 mm | MIC (Shigella flexneri [21]): 100 µg/mL (≈ 229 µM); MIC (Aspergillus clavatus [22]): 100 µg/mL (≈ 229 µM); MIC (Escherichia coli [23]): 100 µg/mL (≈ 229 µM); MIC (Bacillus cereus [25]): 50 µg/mL (≈ 115 µM); MIC (Candida albicans [26]): 100 µg/mL (≈ 229 µM); zone of inhibition at 100 µg/disc (Escherichia coli [27]): 12 mm; zone of inhibition at 100 µg/disc (Aspergillus fumigatus [28]): < 10 mm; MIC (Pseudomonas aeruginosa [29]): 100 µg/mL (≈ 229 µM)
3 | COc1ccc2nc(NC(=O)CSc3nnc(Cn4cnc5ccccc54)o3)sc2c1 | 19 mm | 20 mm | 20 mm | 12 mm | 12.5 µg/mL (≈ 27.6 µM) | 50 µg/mL (≈ 110 µM) | 25 µg/mL (≈ 55.2 µM) | 26 mm | 99% | 12.5 µg/mL (≈ 27.6 µM) | 22 mm | 50 µg/mL (≈ 110 µM) | > 6.25 µg/mL | 50 µg/mL (≈ 110 µM) | 25 mm | 21 mm | 3.56 | 24 mm | 100 µg/mL (≈ 221 µM) | 17 mm | MIC (Shigella flexneri [21]): 6.25 µg/mL (≈ 13.8 µM); MIC (Aspergillus clavatus [22]): 50 µg/mL (≈ 110 µM); MIC (Escherichia coli [23]): 50 µg/mL (≈ 110 µM); MIC (Bacillus cereus [25]): 50 µg/mL (≈ 110 µM); MIC (Candida albicans [26]): 25 µg/mL (≈ 55.2 µM); zone of inhibition at 100 µg/disc (Escherichia coli [27]): 18 mm; zone of inhibition at 100 µg/disc (Aspergillus fumigatus [28]): < 10 mm; MIC (Pseudomonas aeruginosa [29]): 100 µg/mL (≈ 221 µM)
4 | CCOc1ccc2nc(NC(=O)CSc3nnc(Cn4cnc5ccccc54)o3)sc2c1 | 22 mm | 19 mm | 21 mm | 18 mm | 12.5 µg/mL (≈ 26.8 µM) | 50 µg/mL (≈ 107 µM) | 12.5 µg/mL (≈ 26.8 µM) | 26 mm | 99% | 50 µg/mL (≈ 107 µM) | 17 mm | 50 µg/mL (≈ 107 µM) | > 6.25 µg/mL | 25 µg/mL (≈ 53.6 µM) | 26 mm | 21 mm | 3.9 | 19 mm | 100 µg/mL (≈ 214 µM) | 20 mm | MIC (Shigella flexneri [21]): 50 µg/mL (≈ 107 µM); MIC (Aspergillus clavatus [22]): 100 µg/mL (≈ 214 µM); MIC (Escherichia coli [23]): 25 µg/mL (≈ 53.6 µM); MIC (Bacillus cereus [25]): 50 µg/mL (≈ 107 µM); MIC (Candida albicans [26]): 25 µg/mL (≈ 53.6 µM); zone of inhibition at 100 µg/disc (Escherichia coli [27]): 24 mm; zone of inhibition at 100 µg/disc (Aspergillus fumigatus [28]): 13 mm; MIC (Pseudomonas aeruginosa [29]): 50 µg/mL (≈ 107 µM)
